From PubChem BioAssay (NCI)
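Each compound was tested at five concentrations against cells in 96-well plates for 48 hours. TGI denotes the concentration required for complete inhibition of growth.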

Key:
Test in all cases: NCI anticancer screen, dose series, 48 h
K-562 leukemia = tested on: K-562 leukemia
HT29 colon = tested on: HT29 colon
LXFL 529 NSCLC = tested on: LXFL 529 NSCLC
UACC-62 melanoma = tested on: UACC-62 melanoma
TK-10 renal = tested on: TK-10 renal
SW-620 colon = tested on: SW-620 colon
KM20L2 colon = tested on: KM20L2 colon
HOP-92 NSCLC = tested on: HOP-92 NSCLC
NCI-H23 lung = tested on: NCI-H23 lung
SNB-78 CNS = tested on: SNB-78 CNS
COLO 205 colon = tested on: COLO 205 colon
A549 NSCLC = tested on: A549 NSCLC
OVCAR-4 ovarian = tested on: OVCAR-4 ovarian
SF-295 CNS = tested on: SF-295 CNS
M14 melanoma = tested on: M14 melanoma
DMS 114 small cell lung = tested on: DMS 114 small cell lung
786-0 renal = tested on: 786-0 renal
UO-31 renal = tested on: UO-31 renal
XF 498 CNS = tested on: XF 498 CNS
OVCAR-3 ovarian = tested on: OVCAR-3 ovarian
SK-MEL-28 melanoma = tested on: SK-MEL-28 melanoma
HCT-15 colon = tested on: HCT-15 colon
SF-268 CNS = tested on: SF-268 CNS
NCI-H226 lung = tested on: NCI-H226 lung
SK-OV-3 ovarian = tested on: SK-OV-3 ovarian
ACHN renal = tested on: ACHN renal
A498 renal = tested on: A498 renal
HCT-116 colon = tested on: HCT-116 colon
DLD-1 colon = tested on: DLD-1 colon
EKVX NSCLC = tested on: EKVX NSCLC
UACC-257 melanoma = tested on: UACC-257 melanoma
MALME-3M melanoma = tested on: MALME-3M melanoma
IGROV1 ovarian = tested on: IGROV1 ovarian
CAKI-1 renal = tested on: CAKI-1 renal
SK-MEL-5 melanoma = tested on: SK-MEL-5 melanoma
OVCAR-5 ovarian = tested on: OVCAR-5 ovarian
SN12C renal = tested on: SN12C renal
HL-60(TB) leukemia = tested on: HL-60(TB) leukemia
SF-539 CNS = tested on: SF-539 CNS
U251 CNS = tested on: U251 CNS
SNB-19 CNS = tested on: SNB-19 CNS
KM12 colon = tested on: KM12 colon
NCI-H522 lung = tested on: NCI-H522 lung
HOP-18 NSCLC = tested on: HOP-18 NSCLC
CCRF-CEM leukemia = tested on: CCRF-CEM leukemia
OVCAR-8 ovarian = tested on: OVCAR-8 ovarian
SNB-75 CNS = tested on: SNB-75 CNS
MOLT-4 leukemia = tested on: MOLT-4 leukemia
SK-MEL-2 melanoma = tested on: SK-MEL-2 melanoma
RPMI-8226 leukemia = tested on: RPMI-8226 leukemia
NCI-H460 lung = tested on: NCI-H460 lung
RXF-631 renal = tested on: RXF-631 renal
DMS 273 small cell lung = tested on: DMS 273 small cell lung
NCI/ADR-RES ovarian = tested on: NCI/ADR-RES ovarian
PC-3 prostate = tested on: PC-3 prostate
MDA-MB-435 = tested on: MDA-MB-435
MDA-N = tested on: MDA-N
MDA-MB-231 breast = tested on: MDA-MB-231 breast
RXF 393 renal = tested on: RXF 393 renal
DU-145 prostate = tested on: DU-145 prostate
LOX IMVI melanoma = tested on: LOX IMVI melanoma
SR leukemia = tested on: SR leukemia
MCF7 breast = tested on: MCF7 breast
T-47D breast = tested on: T-47D breast
BT-549 breast = tested on: BT-549 breast
HCC-2998 colon = tested on: HCC-2998 colon
HOP-62 NSCLC = tested on: HOP-62 NSCLC
HS 578T breast = tested on: HS 578T breast
M19-MEL melanoma = tested on: M19-MEL melanoma

## CCCN(CCC)C(=O)c1nc(N)nc(-c2ccc(OC)cc2)c1-c1ccc(OC)cc1
K-562 leukemia
  TGI: > 100 µM
HT29 colon
  TGI: > 100 µM
LXFL 529 NSCLC
  TGI: > 100 µM
UACC-62 melanoma
  TGI: > 100 µM
TK-10 renal
  TGI: > 100 µM
SW-620 colon
  TGI: > 100 µM
KM20L2 colon
  TGI: > 100 µM
HOP-92 NSCLC
  TGI: > 100 µM
NCI-H23 lung
  TGI: > 100 µM
SNB-78 CNS
  TGI: > 100 µM
COLO 205 colon
  TGI: > 100 µM
A549 NSCLC
  TGI: > 100 µM
OVCAR-4 ovarian
  TGI: > 100 µM
SF-295 CNS
  TGI: > 100 µM
M14 melanoma
  TGI: > 100 µM
DMS 114 small cell lung
  TGI: > 100 µM
786-0 renal
  TGI: > 100 µM
UO-31 renal
  TGI: > 100 µM
XF 498 CNS
  TGI: > 100 µM
OVCAR-3 ovarian
  TGI: > 100 µM
SK-MEL-28 melanoma
  TGI: > 100 µM
HCT-15 colon
  TGI: > 100 µM
SF-268 CNS
  TGI: > 100 µM
NCI-H226 lung
  TGI: > 100 µM
SK-OV-3 ovarian
  TGI: > 100 µM
ACHN renal
  TGI: > 100 µM
A498 renal
  TGI: > 100 µM
HCT-116 colon
  TGI: > 100 µM
DLD-1 colon
  TGI: > 100 µM
EKVX NSCLC
  TGI: > 100 µM
UACC-257 melanoma
  TGI: > 100 µM
MALME-3M melanoma
  TGI: > 100 µM
IGROV1 ovarian
  TGI: > 100 µM
CAKI-1 renal
  TGI: > 100 µM
SK-MEL-5 melanoma
  TGI: > 100 µM
OVCAR-5 ovarian
  TGI: > 100 µM
SN12C renal
  TGI: > 100 µM
HL-60(TB) leukemia
  TGI: > 100 µM
SF-539 CNS
  TGI: > 100 µM
U251 CNS
  TGI: > 100 µM
SNB-19 CNS
  TGI: > 100 µM
KM12 colon
  TGI: > 100 µM
NCI-H522 lung
  TGI: > 100 µM
HOP-18 NSCLC
  TGI: > 100 µM
CCRF-CEM leukemia
  TGI: > 100 µM
OVCAR-8 ovarian
  TGI: > 100 µM
SNB-75 CNS
  TGI: > 100 µM
MOLT-4 leukemia
  TGI: > 100 µM
SK-MEL-2 melanoma
  TGI: > 100 µM
RPMI-8226 leukemia
  TGI: > 100 µM
NCI-H460 lung
  TGI: > 100 µM
RXF-631 renal
  TGI: > 100 µM
DMS 273 small cell lung
  TGI: > 100 µM

## CCCCCCCC/C=C1\CCC(CN2CCOCC2)C1=O (stereo not given)
K-562 leukemia
  TGI: 8.68 µM
HT29 colon
  TGI: 20.5 µM
LXFL 529 NSCLC
  TGI: 9.2 µM
UACC-62 melanoma
  TGI: 12.6 µM
TK-10 renal
  TGI: 7.42 µM
SW-620 colon
  TGI: 8.39 µM
KM20L2 colon
  TGI: 33 µM
HOP-92 NSCLC
  TGI: 33 µM
NCI-H23 lung
  TGI: 24.4 µM
SNB-78 CNS
  TGI: 31.8 µM
NCI/ADR-RES ovarian
  TGI: 14.4 µM
PC-3 prostate
  TGI: 23.7 µM
MDA-MB-435
  TGI: 15.3 µM
MDA-N
  TGI: 22.4 µM
COLO 205 colon
  TGI: 17.3 µM
A549 NSCLC
  TGI: 24.7 µM
OVCAR-4 ovarian
  TGI: 31 µM
MDA-MB-231 breast
  TGI: 4.42 µM
RXF 393 renal
  TGI: 25.3 µM
SF-295 CNS
  TGI: 28.2 µM
M14 melanoma
  TGI: 16.7 µM
DMS 114 small cell lung
  TGI: 20.7 µM
786-0 renal
  TGI: 3.07 µM
UO-31 renal
  TGI: 16.6 µM
XF 498 CNS
  TGI: 27.5 µM
DU-145 prostate
  TGI: 17.9 µM
OVCAR-3 ovarian
  TGI: 14.8 µM
SK-MEL-28 melanoma
  TGI: 21.2 µM
HCT-15 colon
  TGI: 9.52 µM
LOX IMVI melanoma
  TGI: 9.94 µM
SF-268 CNS
  TGI: 21.1 µM
NCI-H226 lung
  TGI: 33.3 µM
SK-OV-3 ovarian
  TGI: 34.3 µM
ACHN renal
  TGI: 30.1 µM
SR leukemia
  TGI: 5.3 µM
A498 renal
  TGI: 29.9 µM
HCT-116 colon
  TGI: 13.6 µM
DLD-1 colon
  TGI: 8.03 µM
MCF7 breast
  TGI: 6.18 µM
EKVX NSCLC
  TGI: 32.9 µM
UACC-257 melanoma
  TGI: 21.7 µM
MALME-3M melanoma
  TGI: 24.7 µM
IGROV1 ovarian
  TGI: 21 µM
CAKI-1 renal
  TGI: 23.8 µM
SK-MEL-5 melanoma
  TGI: 23.2 µM
OVCAR-5 ovarian
  TGI: 36.5 µM
T-47D breast
  TGI: 4.57 µM
SN12C renal
  TGI: 12.5 µM
HL-60(TB) leukemia
  TGI: 14.8 µM
SF-539 CNS
  TGI: 14.7 µM
U251 CNS
  TGI: 28 µM
SNB-19 CNS
  TGI: 24.6 µM
KM12 colon
  TGI: 12.4 µM
BT-549 breast
  TGI: 22.7 µM
NCI-H522 lung
  TGI: 6.79 µM
HCC-2998 colon
  TGI: 26.2 µM
HOP-18 NSCLC
  TGI: 25.8 µM
CCRF-CEM leukemia
  TGI: 10.9 µM
OVCAR-8 ovarian
  TGI: 13.8 µM
SNB-75 CNS
  TGI: 23.5 µM
MOLT-4 leukemia
  TGI: 5.35 µM
HOP-62 NSCLC
  TGI: 30 µM
SK-MEL-2 melanoma
  TGI: 28.8 µM
HS 578T breast
  TGI: 50.6 µM
RPMI-8226 leukemia
  TGI: 4.19 µM
M19-MEL melanoma
  TGI: 26.3 µM
NCI-H460 lung
  TGI: 39.4 µM
RXF-631 renal
  TGI: 64.8 µM

## NCCNC(=O)c1cccc2cc3ccccc3nc12
K-562 leukemia
  TGI: 6.16 µM
HT29 colon
  TGI: 6.5 µM
LXFL 529 NSCLC
  TGI: > 36.6 µM
UACC-62 melanoma
  TGI: 8.34 µM
TK-10 renal
  TGI: 21.2 µM
SW-620 colon
  TGI: > 34.1 µM
KM20L2 colon
  TGI: 12.5 µM
HOP-92 NSCLC
  TGI: > 100 µM
NCI-H23 lung
  TGI: 10.6 µM
SNB-78 CNS
  TGI: 37 µM
A549 NSCLC
  TGI: > 100 µM
OVCAR-4 ovarian
  TGI: 15.2 µM
RXF 393 renal
  TGI: 10.2 µM
SF-295 CNS
  TGI: > 20.9 µM
M14 melanoma
  TGI: 11 µM
DMS 114 small cell lung
  TGI: 6.66 µM
786-0 renal
  TGI: > 68.4 µM
UO-31 renal
  TGI: > 28.5 µM
XF 498 CNS
  TGI: 6.04 µM
OVCAR-3 ovarian
  TGI: 15.4 µM
SK-MEL-28 melanoma
  TGI: 9.71 µM
HCT-15 colon
  TGI: 15 µM
LOX IMVI melanoma
  TGI: 2.76 µM
SF-268 CNS
  TGI: 3.73 µM
NCI-H226 lung
  TGI: 3.61 µM
SK-OV-3 ovarian
  TGI: > 39 µM
SR leukemia
  TGI: 53.8 µM
A498 renal
  TGI: 5.88 µM
HCT-116 colon
  TGI: 8.06 µM
DLD-1 colon
  TGI: 18.6 µM
EKVX NSCLC
  TGI: 17.5 µM
UACC-257 melanoma
  TGI: 8.81 µM
MALME-3M melanoma
  TGI: 3.29 µM
IGROV1 ovarian
  TGI: > 28.6 µM
CAKI-1 renal
  TGI: > 23.4 µM
SK-MEL-5 melanoma
  TGI: > 23.2 µM
OVCAR-5 ovarian
  TGI: 14.6 µM
SN12C renal
  TGI: 20.8 µM
SF-539 CNS
  TGI: 16.9 µM
U251 CNS
  TGI: 9.04 µM
SNB-19 CNS
  TGI: 19.1 µM
KM12 colon
  TGI: 20.4 µM
NCI-H522 lung
  TGI: > 100 µM
HCC-2998 colon
  TGI: 21.2 µM
HOP-18 NSCLC
  TGI: > 40.9 µM
OVCAR-8 ovarian
  TGI: > 22.2 µM
SNB-75 CNS
  TGI: 27.7 µM
MOLT-4 leukemia
  TGI: 1.94 µM
HOP-62 NSCLC
  TGI: 5.02 µM
SK-MEL-2 melanoma
  TGI: 7.81 µM
RPMI-8226 leukemia
  TGI: > 100 µM
M19-MEL melanoma
  TGI: 5.34 µM
RXF-631 renal
  TGI: 16.7 µM
DMS 273 small cell lung
  TGI: > 100 µM
